# In patent US20140228349A1, “5,7-SUBSTITUTED-IMIDAZO[1,2-C]PYRIMIDINES” (Array BioPharma Inc., priority 2011, published 2014):
# How the values were obtained:
# Assay type in all cases: biochemical
# JAK1 = biological target: T1, JAK1 (Homo sapiens, UniProt P23458); assay: JAK1 Inhibition Assay (Omnia kinase fluorescence peptide substrate); conditions: averaged IC50 ranges; 40 μM (Km app) or 1 mM ATP, 15 nM JAK1
# T1 construct: purchased Invitrogen Corporation, Carlsbad, Calif; IVGN PV4775
# Summary of the method: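 15 nM JAK1, 8 μM Omnia Y12 peptide, 40 μM (Km app) or 1 mM ATP; 25 mM HEPES pH 7.4, 10 mM MgCl2, 2% DMSO. Fluorescence (ex 360/em 485 nm) read every 50 s over 45 min. IC50 by 4-parameter fit of percent of control, top dose 10 μM.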
# JAK3 = biological target: T2, JAK3 (Homo sapiens, UniProt P52333); assay: JAK3 Inhibition Assay (Omnia kinase fluorescence peptide substrate); conditions: averaged IC50 ranges; 10 μM (Km app) or 1 mM ATP, 2.5 nM JAK3
# T2 construct: purchased Invitrogen Corporation, Carlsbad, Calif; IVGN PV4080
# T2 sequence (P52333 1-1124): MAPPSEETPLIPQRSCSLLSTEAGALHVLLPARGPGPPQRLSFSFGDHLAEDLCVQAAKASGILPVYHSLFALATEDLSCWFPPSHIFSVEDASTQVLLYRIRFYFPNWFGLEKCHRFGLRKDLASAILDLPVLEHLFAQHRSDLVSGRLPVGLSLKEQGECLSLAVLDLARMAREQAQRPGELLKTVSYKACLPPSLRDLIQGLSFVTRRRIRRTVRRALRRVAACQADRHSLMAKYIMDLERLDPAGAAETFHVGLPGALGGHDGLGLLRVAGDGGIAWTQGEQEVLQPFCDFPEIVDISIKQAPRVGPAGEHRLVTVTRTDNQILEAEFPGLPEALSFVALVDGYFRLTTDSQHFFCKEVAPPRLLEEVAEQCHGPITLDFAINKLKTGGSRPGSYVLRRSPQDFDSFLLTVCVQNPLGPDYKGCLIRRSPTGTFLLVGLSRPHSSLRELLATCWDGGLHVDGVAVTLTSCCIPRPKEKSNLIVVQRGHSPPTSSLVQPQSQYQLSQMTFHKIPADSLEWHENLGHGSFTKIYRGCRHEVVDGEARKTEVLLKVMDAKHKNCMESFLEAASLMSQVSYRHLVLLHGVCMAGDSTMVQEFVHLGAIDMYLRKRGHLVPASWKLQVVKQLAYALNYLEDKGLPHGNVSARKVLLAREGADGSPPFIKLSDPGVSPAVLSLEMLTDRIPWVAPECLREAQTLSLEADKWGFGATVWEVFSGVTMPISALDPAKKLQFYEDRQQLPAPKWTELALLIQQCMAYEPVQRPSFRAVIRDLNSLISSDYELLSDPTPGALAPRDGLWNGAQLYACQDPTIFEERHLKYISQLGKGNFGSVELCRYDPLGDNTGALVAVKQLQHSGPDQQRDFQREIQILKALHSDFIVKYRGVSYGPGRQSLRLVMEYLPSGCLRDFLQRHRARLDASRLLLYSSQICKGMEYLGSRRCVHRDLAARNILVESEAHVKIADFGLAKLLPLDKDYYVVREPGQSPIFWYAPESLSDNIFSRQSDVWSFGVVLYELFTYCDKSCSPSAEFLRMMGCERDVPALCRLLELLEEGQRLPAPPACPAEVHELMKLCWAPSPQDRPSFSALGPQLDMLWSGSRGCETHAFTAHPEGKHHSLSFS
# Summary of the method: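 IC50 is the concentration giving 50 percent of control on a 4-parameter logistic fit of 10-point, 3-fold dilutions from a 10 μM top dose, at 2% final DMSO. Kinetic Sox fluorescence (360/485 nm) was monitored every 50 s for 45 min. Mix: JAK3 2.5 nM, Omnia Y7 peptide 10 μM, ATP 10 μM (Km app) or 1 mM, in HEPES pH 7.4 buffer with MgCl2, Triton X-100 and DTT.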
# JAK2 = biological target: T3, JAK2 (Homo sapiens, UniProt O60674); assay: JAK2 Inhibition Assay (Omnia kinase fluorescence peptide substrate); conditions: averaged IC50 ranges; 25 μM (Km app) or 1 mM ATP, 5 nM JAK2
# T3 construct: purchased Invitrogen Corporation, Carlsbad, Calif; IVGN PV4288
# T3 sequence (O60674 whole entry): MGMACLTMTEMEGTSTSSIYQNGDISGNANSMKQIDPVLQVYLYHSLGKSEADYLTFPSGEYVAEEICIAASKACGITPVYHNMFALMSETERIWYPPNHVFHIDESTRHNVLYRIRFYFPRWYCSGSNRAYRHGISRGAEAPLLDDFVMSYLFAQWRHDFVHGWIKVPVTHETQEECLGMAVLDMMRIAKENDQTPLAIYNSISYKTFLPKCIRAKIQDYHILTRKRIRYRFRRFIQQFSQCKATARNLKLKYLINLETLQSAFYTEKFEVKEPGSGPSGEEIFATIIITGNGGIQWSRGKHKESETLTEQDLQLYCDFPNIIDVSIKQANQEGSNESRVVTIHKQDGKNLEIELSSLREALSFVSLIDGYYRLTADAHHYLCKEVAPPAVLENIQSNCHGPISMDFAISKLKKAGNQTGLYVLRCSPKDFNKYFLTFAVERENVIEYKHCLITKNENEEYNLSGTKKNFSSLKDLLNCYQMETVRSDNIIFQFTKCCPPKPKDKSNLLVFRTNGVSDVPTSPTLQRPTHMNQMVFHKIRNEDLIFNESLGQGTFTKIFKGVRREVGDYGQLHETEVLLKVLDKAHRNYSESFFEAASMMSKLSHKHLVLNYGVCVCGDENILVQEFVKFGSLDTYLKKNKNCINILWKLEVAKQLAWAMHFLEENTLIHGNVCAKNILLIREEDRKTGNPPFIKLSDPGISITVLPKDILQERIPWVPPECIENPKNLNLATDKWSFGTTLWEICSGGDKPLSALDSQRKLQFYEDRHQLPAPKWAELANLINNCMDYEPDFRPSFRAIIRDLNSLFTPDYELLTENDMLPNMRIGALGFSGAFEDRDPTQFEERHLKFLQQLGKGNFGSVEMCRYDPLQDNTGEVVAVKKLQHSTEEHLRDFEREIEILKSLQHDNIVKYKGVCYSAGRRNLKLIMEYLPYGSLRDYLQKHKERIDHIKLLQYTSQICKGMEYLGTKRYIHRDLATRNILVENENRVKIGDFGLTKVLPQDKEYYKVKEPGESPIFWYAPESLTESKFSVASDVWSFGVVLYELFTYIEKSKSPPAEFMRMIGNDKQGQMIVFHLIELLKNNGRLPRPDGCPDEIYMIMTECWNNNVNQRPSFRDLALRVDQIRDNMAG
# Human Tyk2 kinase domain = biological target: T4, Human Tyk2 kinase domain (Homo sapiens, UniProt P29597); assay: Tyk2 Inhibition Assay (Omnia kinase fluorescence peptide substrate); conditions: averaged IC50 ranges; 10 μM (Km app) or 1 mM ATP, 2 nM Tyk2
# T4 construct: comprising amino acids 886 to 1187; His10 (10 histidine residues) (C, cleaved yes); made in house
# T4 sequence (P29597 886-1187): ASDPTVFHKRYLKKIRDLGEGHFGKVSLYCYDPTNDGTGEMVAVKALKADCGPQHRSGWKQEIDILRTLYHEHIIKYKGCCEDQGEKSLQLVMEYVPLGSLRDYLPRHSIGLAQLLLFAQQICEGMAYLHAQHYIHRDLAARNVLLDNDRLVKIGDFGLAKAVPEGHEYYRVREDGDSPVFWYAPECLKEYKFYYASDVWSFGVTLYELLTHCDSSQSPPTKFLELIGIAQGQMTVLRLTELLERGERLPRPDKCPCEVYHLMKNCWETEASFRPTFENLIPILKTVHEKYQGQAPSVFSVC
# Summary of the method: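 Phosphorylation of 8 μM Omnia Y12 peptide followed kinetically by Sox fluorescence, ex 360/em 485 nm, every 50 s for 45 min. Enzyme: 2 nM Tyk2 kinase domain (aa 886–1187, His tag removed); ATP at 10 μM (Km app) or 1 mM; buffer HEPES pH 7.4 with MgCl2, Triton X-100, DTT. 10-point curves up to 10 μM, IC50 from 4-parameter logistic fit.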
# T1 sequence (P23458 whole entry): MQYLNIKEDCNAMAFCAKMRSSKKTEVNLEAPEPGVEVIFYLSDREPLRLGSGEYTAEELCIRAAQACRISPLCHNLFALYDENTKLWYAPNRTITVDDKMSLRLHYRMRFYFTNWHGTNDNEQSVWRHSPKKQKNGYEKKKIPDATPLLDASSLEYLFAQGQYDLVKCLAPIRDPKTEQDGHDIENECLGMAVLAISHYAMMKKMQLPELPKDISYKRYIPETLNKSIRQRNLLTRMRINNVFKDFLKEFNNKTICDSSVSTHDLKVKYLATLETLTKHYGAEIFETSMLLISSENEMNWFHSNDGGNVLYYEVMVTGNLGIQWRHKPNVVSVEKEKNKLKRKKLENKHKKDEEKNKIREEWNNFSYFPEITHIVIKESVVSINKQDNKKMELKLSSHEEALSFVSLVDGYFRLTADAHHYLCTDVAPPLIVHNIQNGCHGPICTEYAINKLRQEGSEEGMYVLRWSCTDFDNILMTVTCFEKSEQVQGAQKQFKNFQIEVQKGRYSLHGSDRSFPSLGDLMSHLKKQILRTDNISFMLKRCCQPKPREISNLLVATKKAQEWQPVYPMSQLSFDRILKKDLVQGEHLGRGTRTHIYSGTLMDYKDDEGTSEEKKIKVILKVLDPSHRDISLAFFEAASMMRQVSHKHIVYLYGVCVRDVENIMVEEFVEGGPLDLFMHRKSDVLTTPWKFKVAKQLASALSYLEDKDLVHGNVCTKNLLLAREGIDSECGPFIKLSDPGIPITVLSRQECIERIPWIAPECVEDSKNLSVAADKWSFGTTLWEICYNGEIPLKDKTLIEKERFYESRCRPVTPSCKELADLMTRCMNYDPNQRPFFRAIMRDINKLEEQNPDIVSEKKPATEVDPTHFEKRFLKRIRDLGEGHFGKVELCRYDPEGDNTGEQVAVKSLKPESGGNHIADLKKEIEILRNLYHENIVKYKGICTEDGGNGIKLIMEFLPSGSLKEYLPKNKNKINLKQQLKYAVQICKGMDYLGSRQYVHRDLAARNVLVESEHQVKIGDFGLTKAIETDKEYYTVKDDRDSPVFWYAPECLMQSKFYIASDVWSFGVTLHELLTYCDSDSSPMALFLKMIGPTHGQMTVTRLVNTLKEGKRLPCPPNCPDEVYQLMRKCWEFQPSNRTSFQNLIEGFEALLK
Compound,IC50 (JAK1),IC50 (JAK3),IC50 (JAK2),IC50 (Human Tyk2 kinase domain)
"C#CCCn1cc(-c2nc(-c3cnn(C)c3)cc3nccn23)cn1 [Example 8, 5-(1-(But-3-yn-1-yl)-1H-pyrazol-4-yl)-7-(1-methyl-1H-pyrazol-4-yl)imidazo[1,2-c]pyrimidine]",0.1 to 1 µM,0.1 to 1 µM,0.01 to 0.1 µM,0.01 to 0.1 µM
"COCCC(c1ccc(F)cc1)n1cc(-c2nc(-c3cnn(C)c3)cc3nccn23)cn1 (stereo not drawn) [Example 82, 5-(1-(1-(4-fluorophenyl)-3-methoxypropyl)-1H-pyrazol-4-yl)-7-(1-methyl-1H-pyrazol-4-yl)imidazo[1,2-c]pyrimidine]",0.1 to 1 µM,0.1 to 1 µM,0.1 to 1 µM,0.1 to 1 µM
"Cn1cc(-c2cc3nccn3c(-c3cnn(C4(CCF)CCC4)c3)n2)cn1 [Example 52, 5-(1-(1-(2-fluoroethyl)cyclobutyl)-1H-pyrazol-4-yl)-7-(1-methyl-1H-pyrazol-4-yl)imidazo[1,2-c]pyrimidine]",0.1 to 1 µM,0.1 to 1 µM,0.1 to 1 µM,0.01 to 0.1 µM
"COCCC1(n2cc(-c3nc(-c4cnn(C)c4)cc4nccn34)cn2)CN(S(=O)(=O)C(F)(F)F)C1 [Example 4, 5-(1-(3-(2-methoxyethyl)-1-((trifluoromethyl)sulfonyl)azetidin-3-yl)-1H-pyrazol-4-yl)-7-(1-methyl-1H-pyrazol-4-yl)imidazo[1,2-c]pyrimidine]",> 1 µM,> 1 µM,> 1 µM,0.1 to 1 µM
"Cn1cc(-c2cc3nccn3c(-c3ccn([C@H](CCF)[C@@H]4CC4(F)F)c3)n2)cn1 [Example 28, 5-(1-((R)-1-((S)-2,2-difluorocyclopropyl)-3-fluoropropyl)-1H-pyrrol-3-yl)-7-(1-methyl-1H-pyrazol-4-yl)imidazo[1,2-c]pyrimidine]",0.1 to 1 µM,0.1 to 1 µM,0.01 to 0.1 µM,0.01 to 0.1 µM
"Cn1cc(-c2cc3nccn3c(-c3cnn(C(CCF)C4CCC4)c3)n2)cn1 (stereo not drawn) [Example 69, 5-(1-(1-cyclobutyl-3-fluoropropyl)-1H-pyrazol-4-yl)-7-(1-methyl-1H-pyrazol-4-yl)imidazo[1,2-c]pyrimidine]",0.1 to 1 µM,0.1 to 1 µM,0.01 to 0.1 µM,< 0.01 µM
"CCn1cc(-c2nc(-c3cnn(C)c3)cc3nccn23)cn1 [Example 5, 5-(1-ethyl-1H-pyrazol-4-yl)-7-(1-methyl-1H-pyrazol-4-yl)imidazo[1,2-c]pyrimidine]",> 1 µM,> 1 µM,0.1 to 1 µM,0.1 to 1 µM
COCCC(C1CC1(F)F)n1cc(-c2nc(-c3cnn(C)c3)cc3nccn23)cn1 (stereo not drawn) [Example 31],0.1 to 1 µM,0.1 to 1 µM,0.1 to 1 µM,0.1 to 1 µM
"Cn1cc(-c2cc3nccn3c(-c3cnn(C(CCCF)C4CC4)c3)n2)cn1 (stereo not drawn) [Example 30, 5-(1-(1-cyclopropyl-4-fluorobutyl)-1H-pyrazol-4-yl)-7-(1-methyl-1H-pyrazol-4-yl)imidazo[1,2-c]pyrimidine]",0.1 to 1 µM,0.1 to 1 µM,0.01 to 0.1 µM,0.01 to 0.1 µM
"Cn1cc(-c2cc3nccn3c(-c3cnn(C4(CCF)CN(S(=O)(=O)NC5CC5)C4)c3)n2)cn1 [Example 46, N-cyclopropyl-3-(2-fluoroethyl)-3-(4-(7-(1-methyl-1H-pyrazol-4-yl)imidazo[l,2-c]pyrimidin-5-yl)-1H-pyrazol-1-yl)azetidine-1-sulfonamide]",0.1 to 1 µM,> 1 µM,0.1 to 1 µM,0.1 to 1 µM
"Cn1cc(-c2cc3nccn3c(-c3cnn([C@H](CCF)C4CCC4)c3)n2)cn1 [Example 36, (R)-5-(1-(1-cyclobutyl-3-fluoropropyl)-1H-pyrazol-4-yl)-7-(1-methyl-1H-pyrazol-4-yl)imidazo[1,2-c]pyrimidine]",0.1 to 1 µM,0.1 to 1 µM,0.01 to 0.1 µM,< 0.01 µM
"Cn1cc(-c2cc3nccn3c(-c3cnn(C4(CCO)CCC4)c3)n2)cn1 [Example 56, 2-(1-(4-(7-(1-methyl-1H-pyrazol-4-yl)imidazo[1,2-c]pyrimidin-5-yl)-1H-pyrazol-1-yl)cyclobutyl)ethanol]",> 1 µM,> 1 µM,> 1 µM,0.1 to 1 µM
"Cn1cc(-c2cc3nccn3c(-c3cnn(C(CCO)C4CC4(F)F)c3)n2)cn1 (stereo not drawn) [Example 35, 3-(2,2-difluorocyclopropyl)-3-(4-(7-(1-methyl-1H-pyrazol-4-yl)imidazo[1,2-c]pyrimidin-5-yl)-1H-pyrazol-1-yl)propan-1-ol]",> 1 µM,> 1 µM,> 1 µM,0.1 to 1 µM
"Cn1cc(-c2cc3nccn3c(-c3ccn([C@@H](C[C@@H](O)C(F)(F)F)C4CC4)c3)n2)cn1 [Example 101, (2R,4S)-4-cyclopropyl-1,1,1-trifluoro-4-(3-(7-(1-methyl-1H-pyrazol-4-yl)imidazo[1,2-c]pyrimidin-5-yl)-1H-pyrrol-1-yl)butan-2-ol]",0.1 to 1 µM,0.1 to 1 µM,0.1 to 1 µM,0.1 to 1 µM
"C[C@@H](O)C[C@H](C1CC1)n1cc(-c2nc(-c3cnn(C)c3)cc3nccn23)cn1 [Example 40, (2R,4R)-4-cyclopropyl-4-(4-(7-(1-methyl-1H-pyrazol-4-yl)imidazo[1,2-c]pyrimidin-5-yl)-1H-pyrazol-1-yl)butan-2-ol]",> 1 µM,> 1 µM,0.1 to 1 µM,0.1 to 1 µM
"COCCC(C1CCCC1)n1cc(-c2nc(-c3cnn(C)c3)cc3nccn23)cn1 (stereo not drawn) [Example 70, 5-(1-(1-cyclopentyl-3-methoxypropyl)-1H-pyrazol-4-yl)-7-(1-methyl-1H-pyrazol-4-yl)imidazo[1,2-c]pyrimidine]",> 1 µM,> 1 µM,> 1 µM,0.1 to 1 µM
"CC#CCCn1cc(-c2nc(-c3cnn(C)c3)cc3nccn23)cn1 [Example 7, 7-(1-Methyl-1H-pyrazol-4-yl)-5-(1-(pent-3-yn-1-yl)-1H-pyrazol-4-yl)imidazo[1,2-c]pyrimidine]",> 1 µM,> 1 µM,> 1 µM,0.1 to 1 µM
"CCCC(C1CC1)n1cc(-c2nc(-c3cnn(C)c3)cc3nccn23)cn1 (stereo not drawn) [Example 15, 5-(1-(1-Cyclopropylbutyl)-1H-pyrazol-4-yl)-7-(1-methyl-1H-pyrazol-4-yl)imidazo[1,2-c]pyrimidine]",0.1 to 1 µM,0.1 to 1 µM,0.01 to 0.1 µM,0.01 to 0.1 µM
